The values below are quoted from earlier work in article PMC7926623 (Marine Drugs, 2021).

pIC50: −log10 of the molar value.

The data set relates to rα6/α3β2β3 nAChR. As to conditions: cited from earlier work.

With α-Conotoxin TxIB, the pIC50 (commonly −log10 of the IC50, conventionally taken in molar units) is 7.55.
